The record followed here is patent US8912188B2, “Substituted quinoxaline carboxylic acids for the inhibition of PASK” (BioEnergenix, LLC, priority 2011, dated 2014).

By IC50 is commonly meant the concentration at which inhibition is half-maximal. For orientation: bioavailability means the share of a dose that reaches the circulation, judged against a reference dose that is usually intravenous. The low end stands for little systemic uptake, the high end for much systemic uptake. One may read the half-life as the time in which the quantity being followed falls by half. Read a low half-life as rapid decline.

The target of one data set is T1, PASK (UniProt #Q96RG2; human recombinant N-terminal GST tagged construct, residues 879-1323) (Homo sapiens, UniProt Q96RG2).
T1 construct: human recombinant N-terminal GST tagged construct, residues 879-1323; GST (N); host or cells: insect cells
Kind of data set: PASK ATP Radiochemical Assay. Type of data set: biochemical. To be noted: 33P-ATP, Myelin Basic Protein substrate, 120 min at room temperature, read-out: IC50 Kinase Domain. The procedure:
Biochemical Assay for hPASK Activity
PASK ATP Radiochemical Assay
Test compounds in DMSO are then added and the mixture, followed by delivery of ^33P-ATP (specific activity 0.01 μCi/μl final) to initiate the reaction. […] The entire reaction mixture is washed through onto a P81 Phosphocellulose paper and washed three times for 10 minutes in 75 mM phosphoric acid and once in methanol prior to drying and scintillation counting.

The target of the next data set is T2, PASK (Invitrogen) (Homo sapiens, UniProt Q96RG2).
T2 construct: IC50 Kinase Domain; purchased Invitrogen
As to the kind of experiment: PAS Kinase FRET Assay. Format: biochemical. The settings on record: PAS kinase TR-FRET assay (665 nm/615 nm), 2 hours at 25° C.; read-out: IC50 Kinase Domain. (In TR-FRET formats the signal depends on donor and acceptor labels being close together.)

A short description of data set [1]: In vivo pharmacokinetics in the Sprague Dawley rat. To be noted: for bioavailability / half-life: blood; for bioavailability: po, 10 mg/kg; for bioavailability / half-life / volume of distribution: summary of Table 3; for t1/2 (half-life): intravenous 3 mg/kg (1 mg/kg for Example 105), oral 10 mg/kg; for Cl (clearance) / Vss (volume of distribution): intravenous via tail vein, 3 mg/kg (1 mg/kg for Example 105); for Tmax (time to maximum blood concentration after an oral dose): oral gavage 10 mg/kg; for F (oral bioavailability): oral gavage 10 mg/kg vs intravenous 3 mg/kg (1 mg/kg for Example 105). The procedure:
Pharmacokinetics of a PASK Inhibitor
The test compounds were formulated in polyethylene glycol and beta cyclodextrin in water for administration at 1 mg/kg for Example 105, and at 3 mg/kg for Example 14, 15, and 18 for intravenous administration via the tail vein and 10 mg/kg for oral administration by gavage. Blood samples were collected at 0.083, 0.25, 0.5, 1, 2, 4, 6, 8, and 24 hours and the samples were analyzed for test compounds content using LC/MS/MS. The data was submitted to pharmacokinetic analysis using WinNonLin software and the observed and calculated pharmacokinetic parameters are shown in Table 3 for each compound.

A value given as a limit tells only on which side of the number the result lay.

T1 sequence (Q96RG2 879-1323, stated change not applied): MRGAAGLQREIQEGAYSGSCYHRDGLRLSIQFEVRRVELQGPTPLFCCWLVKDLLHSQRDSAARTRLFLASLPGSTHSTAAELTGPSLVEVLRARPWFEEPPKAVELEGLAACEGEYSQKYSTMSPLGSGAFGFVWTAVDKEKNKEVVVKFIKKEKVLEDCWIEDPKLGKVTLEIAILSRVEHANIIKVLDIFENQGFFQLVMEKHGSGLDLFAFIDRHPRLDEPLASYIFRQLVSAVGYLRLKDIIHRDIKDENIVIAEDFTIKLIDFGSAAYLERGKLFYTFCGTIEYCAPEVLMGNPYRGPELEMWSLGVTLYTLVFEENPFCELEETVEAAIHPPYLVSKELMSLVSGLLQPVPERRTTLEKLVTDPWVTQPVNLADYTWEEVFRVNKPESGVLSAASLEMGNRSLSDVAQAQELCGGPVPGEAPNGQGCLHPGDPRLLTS
T2 sequence (Q96RG2 999-1251 limits assumed): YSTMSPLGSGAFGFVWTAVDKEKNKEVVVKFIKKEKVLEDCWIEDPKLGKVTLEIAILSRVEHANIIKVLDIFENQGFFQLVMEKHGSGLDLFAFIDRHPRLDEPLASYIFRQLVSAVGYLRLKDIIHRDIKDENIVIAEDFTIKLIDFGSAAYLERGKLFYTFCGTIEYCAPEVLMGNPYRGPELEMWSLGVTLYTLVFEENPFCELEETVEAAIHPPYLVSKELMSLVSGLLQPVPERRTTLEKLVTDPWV

Take `C[C@H]1CCCN1c1nc2cc(C(=O)O)ccc2nc1-c1cc2ccccc2o1` [Example 14, (S)-2-(Benzofuran-2-yl)-3-(2-methylpyrrolidin-1-yl)quinoxaline-6-carboxylic acid]: the IC50 on PASK is < 10 µM. In addition, the IC50 on PASK (Invitrogen) was < 10 µM. Further, in data set [1], the bioavailability was ≥ 63%, the half-life was ≥ 3 h, the “t1/2 (half-life)” value turned out to be 3.68 h and the “Cl (clearance)” value came to 0.103 L/h/kg. Besides, in data set [1], the “Vss (volume of distribution)” value turned out to be 0.362 L/kg, the “Tmax (time to maximum blood concentration after an oral dose)” value (from here on “Tmax”) came out at 6 h, the “F (oral bioavailability)” value is listed as 63.4% and the volume of distribution result is given as “low”.

As for `CN(c1nc2cc(C(=O)O)ccc2nc1-c1cc2ccccc2o1)C1CC1` [Example 15, 2-(Benzofuran-2-yl)-3-(cyclopropyl(methyl)amino)quinoxaline-6-carboxylic acid], the IC50 on PASK is < 10 µM. Also, the IC50 on PASK (Invitrogen) was < 10 µM. Besides, in data set [1], the bioavailability was ≥ 63%, the half-life is ≥ 3 h, the “t1/2 (half-life)” value is 3.39 h and the “Cl (clearance)” value turned out to be 0.084 L/h/kg. In data set [1], the “Vss (volume of distribution)” value was 0.347 L/kg, the “Tmax” value was found to be 6 h, the “F (oral bioavailability)” value was found to be 79% and the volume of distribution entry was “low”.

Regarding `CC(C)N(C)c1nc2cc(C(=O)O)ccc2nc1-c1cc2cc(F)ccc2o1` [Example 18, 2-(5-Fluorobenzofuran-2-yl)-3-(isopropyl(methyl)amino)quinoxaline-6-carboxylic acid], on PASK, the IC50 is < 10 µM. Besides, at PASK (Invitrogen), the IC50 is < 10 µM. Also, in data set [1], the bioavailability is ≥ 63%, the half-life is ≥ 3 h, the “t1/2 (half-life)” value stood at 7.72 h and the “Cl (clearance)” value was 0.0798 L/h/kg. In data set [1], the “Vss (volume of distribution)” value is given as 0.366 L/kg, the “Tmax” value worked out at 8 h, the “F (oral bioavailability)” value is 74.8% and the volume of distribution result was “low”.

Regarding `C[C@H]1COCCN1c1nc2cc(C(=O)O)ccc2nc1-c1ccc(F)cc1` [Example 105, (S)-2-(4-Fluorophenyl)-3-(3-methylmorpholino)quinoxaline-6-carboxylic acid], the IC50 at PASK was < 10 µM. Further, on PASK (Invitrogen), the IC50 was < 10 µM. For the same molecule, in data set [1], the bioavailability was > 74%, the half-life is > 7 h, the “t1/2 (half-life)” value amounted to 7.72 h and the “Cl (clearance)” value is 0.0427 L/h/kg. Also, in data set [1], the “Vss (volume of distribution)” value is on record as 0.407 L/kg, the “Tmax” value was found to be 1 h, the “F (oral bioavailability)” value was determined as 74.8% and the volume of distribution entry is “low”.

As for `CCCN(CCC)c1nc2cc(C(=O)O)ccc2nc1-c1ccc(F)cc1` [Example 140, 3-(Dipropylamino)-2-(4-fluorophenyl)quinoxaline-6-carboxylic acid], the IC50 on PASK and at PASK (Invitrogen) was < 10 µM in each case.

As to `CN(c1nc2cc(C(=O)O)ccc2nc1-c1ccc(F)cc1)C1CCC1` [Example 146, 3-(Cyclobutyl(methyl)amino)-2-(4-fluorophenyl)quinoxaline-6-carboxylic acid], the IC50 at PASK and at PASK (Invitrogen) was < 10 µM each time.

Regarding `CC(C)N(C)c1nc2cc(C(=O)O)ccc2nc1-c1ccc(F)cc1F` [Example 147, 2-(2,4-Difluorophenyl)-3-[methyl(propan-2-yl)amino]quinoxaline-6-carboxylic acid], the IC50 on PASK and on PASK (Invitrogen) was < 10 µM each time.

On to `C[C@H]1CCCN1c1nc2cc(C(=O)O)ccc2nc1-c1ccc(F)c(F)c1` [Example 148, (S)-2-(3,4-Difluorophenyl)-3-(2-methylpyrrolidin-1-yl)quinoxaline-6-carboxylic acid], for which the IC50 on PASK and at PASK (Invitrogen) was < 10 µM in each case.

Take `CC(=O)Nc1ccc(-c2nc3ccc(C(=O)O)cc3nc2N(C)C(C)C)cc1` [Example 149, 2-(4-Acetamidophenyl)-3-[methyl(propan-2-yl)amino]quinoxaline-6-carboxylic acid]: the IC50 on PASK and on PASK (Invitrogen) was < 10 µM each time.
